Assay results from PubChem BioAssay AID179 (DTP/NCI, 2004).
The source made the active and inactive calls.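 The calls were made as follows: active = compounds giving half or more protection of infected cells from virus-caused growth loss, again on retest; inactive = the rest.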

Test system: CEM cells HIV-1 protection, formazan growth assay
Assay: NCI AIDS Antiviral Assay
Settings: for IC50: measured here: growth of uninfected CEM cells
In short: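 Steps: treat uninfected and HIV-1-infected human CEM cells at five drug levels; quantify growth by soluble formazan; retest any compound reaching 50% protection; classify actives from the retest.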

SMILES | EC50 | IC50 | outcome
Clc1ccc(C2=Nc3ccccc3SC(c3ccc(Cl)c(Cl)c3)C2)c(Cl)c1 (stereo unspecified) | > 15.8 µM | > 15.8 µM | 
COc1ccc(CSc2nc3ccccc3nc2-c2cccs2)cc1 | > 3.98 µM | > 3.98 µM | 
NC1=NN(c2ccccc2)C2(c3ccncc3C(=O)O)C1C(N)=NN2c1ccccc1 (stereo unspecified) | > 200 µM | > 200 µM | 
CC1=CC=CC(C)(C)CC1(O[Si](C)(C)C)C(F)(F)F (stereo unspecified) | > 200 µM | 148 µM | 
COc1ccccc1NC(=S)N/N=C/c1cccc(C)n1 | > 200 µM | 2.75 µM | 
O=C(O)c1c[nH]c2c([N+](=O)[O-])cccc2c1=O | > 1070 µM | 9.12 µM | inactive
OC(c1cc(C(O)(C(F)(F)F)C(F)(F)F)ncn1)(C(F)(F)F)C(F)(F)F | > 200 µM | 166 µM | 
COC(=O)C1=C(c2ccc3c(c2)OCO3)OC(c2ccc3c(c2)OCO3)C1 (stereo unspecified) |  |  | inactive
O=C(CC(O)(C(F)(F)F)C(F)(F)F)C(c1ccccc1)C(O)(C(F)(F)F)C(F)(F)F (stereo unspecified) |  |  | inactive
O=c1scc(-c2ccc(C(F)(F)F)cc2)s1 | > 85.1 µM | > 85.1 µM | 
CCCc1cc(=O)oc2c3c(c4c(c12)OC(C)(C)[C@@H](O)[C@H]4O)O[C@@H](C)[C@H](C)[C@@H]3O | > 200 µM | 135 µM | 
CC1(C)CC(=O)C2=C(C1)Nn1c(nnc1C(F)(F)F)S2 | > 813 µM | 355 µM | 
O=C1C2=C(Nc3ccccc3N2)OC1c1ccncc1 (stereo unspecified) | > 38 µM | > 38 µM | 
CCN(CC)CCc1nc(-c2ccccc2)no1 | > 200 µM | 27.5 µM | 
Nc1ccccc1S(=O)(=O)N(CC(=O)O)c1ccccc1 |  |  | inactive
O=C1C2CC=C3CCS(=O)C3C2C(=O)N1c1ccccc1 (stereo unspecified) | > 417 µM | > 417 µM | 
C(=NC12CC3CC(CC(C3)C1)C2)C1CCCCC1 | > 200 µM | > 200 µM | 
Cc1ccc(S(=O)(=O)CNC(=O)C(O)(O)C(F)(F)F)cc1 | > 200 µM | > 200 µM | 
O=c1ccccc2cccc(O)c12 |  |  | inactive
COC1/C=C/OC2(C)Oc3c(C)c(O)c4c(O)c(c(/C=N/Nc5ncccn5)c(O)c4c3C2=O)NC(=O)C(C)=C/C=C/C(C)C(O)C(C)C(O)C(C)C(OC(C)=O)C1C (stereo unspecified) | > 151 µM | 9.12 µM | 
c1nc(SSc2ncnc3nc[nH]c23)c2[nH]cnc2n1 | > 20 µM | 0.457 µM | 
CCCC(=O)OCC1=CCC2c3c(c4ccccc4n3C)CC1N2Cc1ccccc1 (stereo unspecified) | > 21.4 µM | 3.8 µM | 

SMILES | EC50 | IC50 | outcome
C=CCN1C(=O)C/C(=C2/CCC(=O)N2CC=C)C1=O | > 955 µM | > 955 µM | 
Cc1ccc(S(=O)(=O)Nn2c(O)c(C#N)c(-c3ccc(N(C)C)cc3)c(C#N)c2=O)cc1 | > 200 µM | > 200 µM | 
O=C1CCCC(=O)C1=C(O)CCCCCCCCCCc1ccccc1 | > 38 µM | > 38 µM | 
COc1ccc(CCNc2ccc(NCCc3ccc(OC)c(OC)c3)c3c2C(=O)c2ccccc2C3=O)cc1OC |  |  | inactive
CCOP(=O)(OCC)/C(C#N)=C/c1cnc(-c2ccccc2)[nH]1 | > 200 µM | 102 µM | 
O=C(CC(=O)C(=O)Nc1ccccc1)CC(c1ccccc1)c1c(O)c2ccccc2oc1=O (stereo unspecified) | > 550 µM | 263 µM | 
COc1ccc(Nc2nc(NNC(=O)Cc3ccccc3)nc(NNC(=O)c3ccncc3)n2)cc1 | > 178 µM | 174 µM | 
CCOC(=O)Cc1csc2[n+]1C(=O)/C(=C\c1cccc(Cl)c1Cl)S2 | > 200 µM | 21.4 µM | 
COC(=O)CCC(=O)c1ccc2c(c1)CC1(C2)Cc2ccc3c(c2C1)CCCC3=O (stereo unspecified) | > 200 µM | 8.51 µM | 
Brc1ccc(C2SCc3nc4ccccc4n32)cc1 (stereo unspecified) |  |  | inactive
CC1CN=C(N(C(=O)Nc2ccc(Cl)cc2)c2cccc(Cl)c2)S1 (stereo unspecified) |  |  | inactive
CSc1c(C(=O)Nc2ccccc2)c(N)nn1-c1ccccc1 | > 200 µM | 70.8 µM | 
CCN(CCCN(CC)C(=O)N[C@@H](Cc1ccccc1)C(=O)NC)C(=O)N[C@@H](Cc1ccccc1)C(=O)NC | > 200 µM | > 200 µM | 
Cc1ccc(S(=O)(=O)ON/N=C2/C3OC3[C@@H]3CCCC[C@H]23)cc1 (stereo partly specified) | > 389 µM | 195 µM | 
Cc1n[nH]c2ccc(Br)cc2c1=O | > 50.1 µM | > 50.1 µM | 
NC(N)=NS(=O)(=O)c1ccc(NC(=O)c2cccc3c(=O)c4ccccc4[nH]c23)cc1 |  |  | inactive
C[N+](C)(C)C.[C-]#[O+].[C-]#[O+].[C-]#[O+].[C-]#[O+].[Cr].c1ccc(N=N[N-]c2ccccc2)cc1 | > 1.26 µM | > 1.26 µM | 
Cc1nc2sc(CCl)nn2c(=O)c1Cl | > 200 µM | 3.98 µM | 
CC(C)(C)S(=O)OC12CC3CC(CC(C3)C1)C2 (stereo unspecified) | > 708 µM | 151 µM | 
c1ccc(CSC(SCc2ccccc2)c2ccccc2)cc1 | > 200 µM | > 200 µM | 
CCN(CC)C(=S)N/N=C(/c1ccccc1)c1ccccn1 | > 200 µM | 1.51 µM | 
COc1ccc(N2C(=O)c3c(c4[nH]c5ccc(OC)cc5c4c4ccc(C(C)(C)C)cc34)C2=O)cc1 | > 11 µM | > 11 µM | 

SMILES | EC50 | IC50 | outcome
C1=C(C2CCCC3[C@@H]4C[C@@H](CN23)C2CCCCN2C4)CCC2[C@H]3C[C@H](CN12)C1CCCCN1C3 (stereo partly specified) | > 21.4 µM | > 21.4 µM | 
CO[C@@](c1ccccc1)(c1nc(C#N)c(N)o1)C(F)(F)F | 79.4 µM | 115 µM | 
O=S(=O)(c1ccccc1)n1c2ccc(Br)cc2c2nc3ccccc3nc21 | > 200 µM | > 200 µM | 
Cc1ccc(C)c(NC(=O)C(=O)C(C(=O)c2ccc3ccccc3c2)C2OC(=O)c3ccccc32)c1 (stereo unspecified) | > 53.7 µM | 23.4 µM | 
COc1oc(C2C/C(=C/C(C)=C/C(C)=C/C(C)=C/c3ccc([N+](=O)[O-])cc3)CO2)c(C)c(=O)c1C (stereo unspecified) | > 38.9 µM | 10 µM | 
CC/C=C/C(O[Si](C)(C)C(C)(C)C)C1CC2OC(=O)CCCC2O1 (stereo unspecified) | > 708 µM | > 708 µM | 
Cc1ccccc1NC(=O)CSc1nnc(-c2ccc(N=Cc3ccc(Cl)cc3)cc2)o1 | > 389 µM | 5.62 µM | 
CN1CCC(O)(OC(=O)C(c2ccccc2)C2(O)CCCC2)CC1 (stereo unspecified) | > 200 µM | > 200 µM | 
CC(=O)c1ccc(NC(=O)/C(CC(=O)/C=C/c2ccccc2)=N/NC(N)=S)cc1 | > 63.1 µM | > 63.1 µM | 
CCOc1ccc(N(CC(=O)N2CC(=O)Nc3cc(C)c(C)cc32)C(C)=O)cc1 | > 13.2 µM | > 13.2 µM | 
CN=c1ncc2nc(-c3ccccc3)c(-c3ccccc3)n(C)c-2n1 |  |  | inactive
O=C1c2c(ccc3c2CCCC3)CC12Cc1ccc3c(c1C2=O)CCCC3 | > 200 µM | > 200 µM | 
CCOC(=O)c1cccc2c(Nc3ccc(S(=O)(=O)Nc4cc(C)on4)cc3)c3ccccc3nc12 | > 200 µM | 25.1 µM | 
O=[N+]([O-])c1ccc(C=NC23CC4CC(CC(C4)C2)C3)cc1 |  |  | inactive
Cc1ccc2cc(N)c3ccc(C)nc3c2n1 | > 2 µM | 0.309 µM | 
OC1CN2CCC[C@@H](O)[C@@H]2C1O (stereo partly specified) | > 200 µM | > 200 µM | 
Cc1c(N(Cc2ccccc2)Cc2ccccc2)nc(S(C)(=O)=O)nc1S(C)(=O)=O |  |  | inactive
O=C(NCCCl)Nc1ccccn1 | > 200 µM | > 200 µM | 
CC1CC(=O)Nc2nc3ccccc3n21 (stereo unspecified) | > 200 µM | > 200 µM | 
COc1cc2ccc3c4cc(OC)c(OC(C)C)cc4c[n+](C)c3c2cc1OC | > 178 µM | 174 µM | 
O=[N+]([O-])C(C(Cl)=C(Cl)Cl)=C(N1CCOCC1)N1CCOCC1 | > 200 µM | 123 µM | 
CC1(C)N=[N+]([O-])C1(C)C | > 200 µM | > 200 µM | 

SMILES | EC50 | IC50 | outcome
COC1CCC(O)C(CO)O1 (stereo unspecified) |  |  | inactive
N#CC1C(=O)NC(=O)C(C#N)C12CCCc1sccc12 (stereo unspecified) | > 871 µM | 832 µM | 
O=C(O)CSc1nnc(COc2ccc(Cl)cc2)n1-c1ccccc1 | > 200 µM | 182 µM | 
COC(=O)C1=C(CS(=O)c2ccc([N+](=O)[O-])cc2[N+](=O)[O-])C2C=CC1C2 (stereo unspecified) |  |  | inactive
Clc1ccc(C=NC23CC4CC(CC(C4)C2)C3)cc1Cl | > 200 µM | 95.5 µM | 
COC(CN1C=C(Sc2ccccc2)CC1)OC | > 97.7 µM | 16.6 µM | 
COc1cccc(C=O)c1[O-].COc1cccc(C=O)c1[O-].[Zn+2] | > 676 µM | 21.9 µM | 
c1ccc2c(c1)n1c(N3CCOCC3)[n+]3ccccc3c1c1c3cccc[n+]3c(N3CCOCC3)n21 | 123 µM | 145 µM | 
NCCCNCCSSC/C=C\CSSCCNCCCN |  |  | inactive
O=C(c1ccco1)C1CC(c2ccc3ccccc3c2O)=NN1c1ccc([N+](=O)[O-])cc1[N+](=O)[O-] (stereo unspecified) | > 200 µM | 15.8 µM | 
O=C1C(c2[nH]c3cc4c(cc3c2O)OCO4)=Nc2cc3c(cc21)OCO3 | > 100 µM | 14.8 µM | 
CC(=O)NC1C(OC(C)C(=O)NC(C)C(=O)NC(CCC(=O)NCCCNc2ccc([N+](=O)[O-])c3[nH]c4ccccc4c(=O)c23)C(N)=O)C(O)C(CO)OC1(C)OCc1ccccc1 (stereo unspecified) | > 151 µM | 15.8 µM | 
CCOC(=O)CC(NC(=O)c1nc[nH]c1[N+](=O)[O-])C(=O)OCC (stereo unspecified) | > 79.4 µM | 39.8 µM | 
COc1ccc(N2C(=O)C3c4[nH]c5ccccc5c4C4CCC(C(C)(C)C)CC4C3C2=O)cc1OC (stereo unspecified) | > 2.14 µM | > 2.14 µM | 
NC1=NS(=O)(=O)N=C(N)C1=NNc1cccc(Cl)c1 | > 832 µM | 138 µM | 
Cc1cc(S(=O)(=O)NC2=NC(c3ccccc3)c3cc(Cl)ccc3N2)c(S)cc1Cl (stereo unspecified) | > 200 µM | > 200 µM | 
O=C1CC23CCC12CCCC3=O (stereo unspecified) | > 550 µM | > 550 µM | 
Cc1cnc2c(c1)C(=O)C1=C(OC(C)(C)CC1O)C2=O (stereo unspecified) | > 26.3 µM | 3.39 µM | 
CN(C)c1ccc(/C=C(\C#N)c2ccc([N+](=O)[O-])cc2)c(Cl)c1 | > 100 µM | 75.9 µM | 
CCCOC(=O)C(C)(C)C(OP(=O)(OCCC)OCCC)=C(C)C | > 200 µM | 105 µM | 
c1ccc2c3c([nH]c2c1)C1c2[nH]c4ccccc4c2CCN1CC3 | > 200 µM | 11 µM | 
